# Read-outs that look alike come from different tables or passages of the source.
# Columns and labels:
# [1] = Body weight evaluation in the TNB colitis rat model; assay type: in vivo; conditions: Wistar rat, Mean ± SEM
# Description: The therapeutic potential for the treatment of ulcerative colitis of IEC01 at 2.5 and 5 mg/kg and IES01 at 2.5 mg/kg, was evaluated after their administration by oral route during 14 days (7 days of preventive treatment and 7 days of therapeutic treatment) using the rat model of experimental colitis induced by TNB (2,4,6-trinitrobenzenesulphonic acid). As reference parameters, the body weight, wet colon weight and score macroscopic evaluation were evaluated after 24 hours and after 7 days of the intraluminal administration of TNB in the colon.
# [2] = tested on: bentonite-induced skin edema in mice; experiment: Bentonite-induced skin edema in mice; assay type: in vivo; conditions: for Area (area below the curve of difference between right and left pad diameter) / Inhibition of the inflammatory process: mice; for Inhibition of the inflammatory process: versus inflamed control
# Excerpt: Mice were individually identified with an ear code and were kept in groups of 6 per cage (Makrolon: 47.6×22.7×14.5 cm). Each cage was individually labelled with the n^o. of the study, type of treatment, doses used and route of administration, as well as the name of the director of the study, number and gender of contained animals, date of arrival and of the beginning of the experiment.
# The animals had free access to mouse standard chow (UAR A04C; Usine d'Alimentation Rationelle, 91360-Villemoisson sur Orge, Francia; lot nos. 70520 and 70722). Drinking water access was ad libitum. The water, supplied by the Compañia de Aguas de Sabadell, S.A., is routinely analysed for the presence of possible contaminants. The temperature in the animal rooms was 22±3° C., with sporadic peaks of 26° C.; air humidity was 60±10%, with sporadic peaks of 80%. Daily light (between 7:00 h and 19:00 h) and dark phases were installed automatically.
# Upon arrival, all animals were allowed to rest in the facilities for 8 days before use in the experiment. Table 2 indicates the six random groups of 10 mice each were set for experimentation.
# The diameter of both hind pads of all mice was measured at day 0 and set as the basal value. Edema was then induced by injecting s.c. 13.3 mg/ml bentonite in 0.03 ml PBS into the right food pad. The corresponding mice were given daily the different compounds orally for 21 days. The inflamed control group was given 0.2 ml PBS only. The diameter of hind pads, as well as the body weight, was then measured every other day.
# In each experimental group the average value, the standard deviation (SD) and the standard error was determined for the two parameters studied (hind pad diameter and body weight). The factor variance analysis (FVA) was used to compare the values obtained in the different groups. Where statistically significant differences were observed, the Duncan-Kramer test for a p<0.05 was applied.
# The area below the curves corresponding to the diameters of the right and left pads was calculated and the evolution of the difference between them were plotted (FIGS. 7 and 8). The anti-inflammatory capacity of the different substances was evaluated as the extent of inhibition of the inflammatory process that was calculated with the formula [formula]
# where C is the area below the inflammed control group and T the area below the different treatment groups.
# [3] = tested on: CD11b; experiment: Cell surface expression of CD11b in human neutrophils (immunofluorescence flow cytometry); assay type: cell-based; conditions: Medium = 100
# Excerpt: (§1) Isolation and treatment of neutrophils.
# (§2) Monoclonal antibodies. […] The antibodies are commercially available.
# (§3) Immunofluorescence flow cytometry. […] Results were expressed as relative MFI (rMFI), such that
# (§4) rMFI=(MFIagent×100)/MFImedium
# (§5) Background fluorescence was substracted from all values.
# [4] = tested on: L-selectin (CD62L); experiment: Cell surface expression of L-selectin in human neutrophils (immunofluorescence flow cytometry); assay type: cell-based; conditions: for L-Selectin cell surface expression (rMFI): Medium = 100
# Excerpt: as §1, §2, §3, §4, §5
# [5] = tested on: HLA; conditions: human neutrophils, Medium = 100
# Description: Isolation and treatment of neutrophils. Human neutrophils were obtained from fresh peripheral blood by dextran sedimentation and centrifugation on Ficoll-Hypaque followed by hypotonic lysis of residual erythrocytes. […] Cells were resuspended at 3×10^6 neutrophils/ml in HEPES/glucose buffer (150 mM NaCl, 5 mM KCl, 10 mM HEPES, 1.2 mM MgCl2, 1.3 mM CaCl2, 5.5 mM glucose, pH 7.5), and incubated in the absence or presence of distinct agents at 37° C. for the times indicated in the respective legends to figures. Subsequently, cells were pelleted by centrifugation and saved to determine the content of different cell surface antigens by flow cytometry.
# Monoclonal antibodies. The following monoclonal antibodies were used: TS1/11 anti-CD11a, Bear-1 anti-CD11b, TP1/36.1 anti-CD43, HP2/9 anti-CD44, Leu-8 anti-L-selectin, and W6/32, specific for a monomorphic determinant on HLA-A, B molecules. P3X63 myeloma culture supernatant was used as a negative control. The antibodies are commercially available.
# Immunofluorescence flow cytometry. Immunofluorescence flow cytometry analysis was performed in a FACStar-Plus and a FACScan flow cytometers (Becton-Dickinson). Neutrophils were incubated at 4° C. with the corresponding monoclonal antibody followed by washing and labelling with a fluorescein isothiocyanate (FITC)-labelled-goat anti-mouse IgG antibody (DAKO, Glostrup, Denmark). Mean fluorescence intensity (MFI) in linear scale was obtained from at least 7000 cells in each sample, and the fluorescence produced by the myeloma P3X63 supernatant was considered as background. Results were expressed as relative MFI (rMFI), such that
# as §4, §5
# [6] = 2.5 mg/kg orally daily for 21 days
# [7] = 5 mg/kg orally daily for 21 days
compound,measurement,setting,value
"CCCCCCCCCCCCCCCCCCOCC(COP(=O)([O-])OCC[N+](C)(C)C)OC (stereo not shown) [IEC01, Edelfosine]",Body weight DAY 1,[1]; 2.5 mg/Kg p.o.,233.5 ± 3.07 g
same,Body weight DAY 2,[1]; 2.5 mg/Kg p.o.,236.0 ± 3.42 g
same,Body weight DAY 4,[1]; 2.5 mg/Kg p.o.,240.3 ± 3.60 g
same,Body weight DAY 7,[1]; 2.5 mg/Kg p.o.,210.6 ± 3.05 g
same,Body weight DAY 8,[1]; 2.5 mg/Kg p.o.,214.8 ± 3.41 g
same,Body weight DAY 11,[1]; 2.5 mg/Kg p.o.,234.4 ± 4.53 g
same,Body weight DAY 12,[1]; 2.5 mg/Kg p.o.,241.0 ± 4.04 g
same,Body weight DAY 13,[1]; 2.5 mg/Kg p.o.,244.2 ± 4.16 g
same,Body weight DAY 14,[1]; 2.5 mg/Kg p.o.,249.4 ± 4.42 g
same,Body weight DAY 1,[1]; 5.0 mg/Kg p.o,227.4 ± 1.21 g
same,Body weight DAY 2,[1]; 5.0 mg/Kg p.o,229.1 ± 1.05 g
same,Body weight DAY 4,[1]; 5.0 mg/Kg p.o,235.9 ± 1.63 g
same,Body weight DAY 7,[1]; 5.0 mg/Kg p.o,207.4 ± 1.90 g
same,Body weight DAY 8,[1]; 5.0 mg/Kg p.o,216.2 ± 2.56 g
same,Body weight DAY 11,[1]; 5.0 mg/Kg p.o,237.6 ± 3.35 g
same,Body weight DAY 12,[1]; 5.0 mg/Kg p.o,245.2 ± 3.17 g
same,Body weight DAY 13,[1]; 5.0 mg/Kg p.o,250.6 ± 3.31 g
same,Body weight DAY 14,[1]; 5.0 mg/Kg p.o,253.6 ± 5.34 g
same,"times more efficient in inhibiting inflammation than indomethacin, at the molecular level","[2]; 2.5 mg/kg versus indomethacin 2 mg/kg, taking molecular weights into account",2 times
same,Area (area below the curve of difference between right and left pad diameter),[2]; [6],5.9 ± 0.45 A.U.
same,Inhibition of the inflammatory process,[2]; [6],23.5%
same,Area (area below the curve of difference between right and left pad diameter),[2]; [7],7.0 ± 1.34 A.U.
same,Inhibition of the inflammatory process,[2]; [7],9.7%
same,CD11b cell surface expression (rMFI),"[3]; 10 ng/ml, rMFI=(MFIagent×100)/MFImedium",97.5 ± 8.5
same,CD11b cell surface expression (rMFI),[3]; 100 ng/ml,101 ± 3
same,CD11b cell surface expression (rMFI),[3]; 500 ng/ml,103 ± 3
same,CD11b cell surface expression (rMFI),[3]; 1 μg/ml,105 ± 6
same,CD11b cell surface expression (rMFI),[3]; 5 μg/ml,130 ± 15
same,times more effective than aceclofenac in promoting L-selectin down-regulation,[4]; after correcting for the different molecular weights,100 times
same,IC50,"[4]; converted from μg/ml values, read-out: IC50 for L-selectin down-regulation, corrected for molecular weight",194 nM
same,concentration at which L-selectin reduction reaches a maximum,[4]; human neutrophils,1 µg/mL
same,IC50 for L-selectin down-regulation,[4]; human neutrophils (FIG. 1),about 0.1 μg/ml
same,time for decrease in cell surface L-selectin content to reach a maximum,[4]; human neutrophils (data not shown),≤ 5 min
same,L-Selectin cell surface expression (rMFI),"[4]; human neutrophils, 10 ng/ml",83.5 ± 4
same,L-Selectin cell surface expression (rMFI),"[4]; human neutrophils, 100 ng/ml",56 ± 6
same,L-Selectin cell surface expression (rMFI),"[4]; human neutrophils, 500 ng/ml",35 ± 5.5
same,L-Selectin cell surface expression (rMFI),"[4]; human neutrophils, 1 μg/ml",18 ± 6
same,L-Selectin cell surface expression (rMFI),"[4]; human neutrophils, 5 μg/ml",22 ± 8
same,HLA cell surface expression (rMFI),[5]; 10 ng/ml,101 ± 5
same,HLA cell surface expression (rMFI),[5]; 100 ng/ml,100 ± 4
same,HLA cell surface expression (rMFI),[5]; 500 ng/ml,99 ± 5
same,HLA cell surface expression (rMFI),[5]; 1 μg/ml,102 ± 6
same,HLA cell surface expression (rMFI),[5]; 5 μg/ml,101 ± 5

# Source: patent US6583127B1, “Use of etherlysophospholipids as antiinflammatory agents” (Inkeysa. SA, priority 1998, dated 2003)
